# Test results taken from PMC8512560, “Design, Synthesis, and Antipoliferative Activities of Novel Substituted Imidazole-Thione Linked Benzotriazole Derivatives” (Molecules, 2021).
# Test system: HL-60 cells
# Experiment: Annexin V/PI apoptotic assay by flow cytometry
# Format: cell-based, human
# Details: BI9 1 µM, CA-4 concentration not given, control 1.6%
# Experimental: Apoptotic cell death was detected by flow cytometry using Annexin V and propidium iodide (PI). HL-60 Cells were seeded in 6 well plated at density of 1 × 10^5 cells/mL and treated with vehicle (0.1% (v/v) EtOH), positive control (CA-4) or compound BI9 (1 µM) for 48 and 72 h. Cells were then harvested and prepared for flow cytometric analysis. Cells were washed in 1X binding buffer ([…] binding buffer: 0.1M HEPES, pH 7.4; 1.4 M NaCl; 25 mM CaCl2 diluted in dH2O) and incubated in the dark for 30 min on ice in Annexin V-containing binding buffer [1:100]. Cells were then washed once in binding buffer and then re-suspended in PI-containing binding buffer [1:1000]. Samples were analysed immediately using the BD accuri flow cytometer and prism software for analysis the data. Four populations are produced during the assay Annexin V and PI negative (Q4, healthy cells), Annexin V positive and PI negative (Q3, early apoptosis), Annexin V and PI positive (Q2, late apoptosis) and Annexin V negative and PI positive (Q1, necrosis).
structure (smiles),measurement,setting,value
"S=c1[nH]c(-n2nnc3ccccc32)cn1-c1ccc(Cl)cc1Cl [BI9, 4-(1H-Benzo[d][1,2,3]Triazol-1-yl)-1-(2,4-Dichlorophenyl)-1H-Imidazole-2(3H)-Thione]",Total fraction of early and late apoptotic cells (Annexin V positive),48 h,21.5%
same,Average fraction of Annexin V-staining positive cells (total apoptotic cells),72 h,19.2%
